pIC50: −log10 of the molar value.
What was measured:
[1] = target: T1, UDP-glucuronosyltransferase 2B17 (Homo sapiens, UniProt O75795); assay: Inhibition of UGT2B17 (unknown origin); type: ADME
T1 sequence (O75795 whole entry): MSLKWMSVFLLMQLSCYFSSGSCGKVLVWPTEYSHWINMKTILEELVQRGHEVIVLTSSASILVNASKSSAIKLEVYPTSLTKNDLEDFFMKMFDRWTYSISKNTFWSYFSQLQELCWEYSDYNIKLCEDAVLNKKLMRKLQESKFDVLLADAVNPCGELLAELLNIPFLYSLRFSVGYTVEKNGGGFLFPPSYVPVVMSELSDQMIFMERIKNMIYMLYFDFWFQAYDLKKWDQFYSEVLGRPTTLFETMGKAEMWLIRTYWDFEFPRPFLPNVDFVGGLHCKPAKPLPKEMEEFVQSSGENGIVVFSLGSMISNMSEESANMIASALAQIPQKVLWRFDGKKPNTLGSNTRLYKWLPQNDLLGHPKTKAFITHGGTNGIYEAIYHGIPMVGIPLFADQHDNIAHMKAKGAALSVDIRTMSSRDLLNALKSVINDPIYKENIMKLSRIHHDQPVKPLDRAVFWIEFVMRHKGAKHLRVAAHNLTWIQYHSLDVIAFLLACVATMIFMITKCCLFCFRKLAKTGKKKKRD

[2] = target: T2, 2-hydroxyacylsphingosine 1-beta-galactosyltransferase (Homo sapiens, UniProt Q16880); assay: Inhibition of UGT8 in human OE19 cells assessed as redcution in SFT accumulation measured after 72 hrs by LC-MS/MS analysis; type: cell-based
T2 sequence (Q16880 whole entry): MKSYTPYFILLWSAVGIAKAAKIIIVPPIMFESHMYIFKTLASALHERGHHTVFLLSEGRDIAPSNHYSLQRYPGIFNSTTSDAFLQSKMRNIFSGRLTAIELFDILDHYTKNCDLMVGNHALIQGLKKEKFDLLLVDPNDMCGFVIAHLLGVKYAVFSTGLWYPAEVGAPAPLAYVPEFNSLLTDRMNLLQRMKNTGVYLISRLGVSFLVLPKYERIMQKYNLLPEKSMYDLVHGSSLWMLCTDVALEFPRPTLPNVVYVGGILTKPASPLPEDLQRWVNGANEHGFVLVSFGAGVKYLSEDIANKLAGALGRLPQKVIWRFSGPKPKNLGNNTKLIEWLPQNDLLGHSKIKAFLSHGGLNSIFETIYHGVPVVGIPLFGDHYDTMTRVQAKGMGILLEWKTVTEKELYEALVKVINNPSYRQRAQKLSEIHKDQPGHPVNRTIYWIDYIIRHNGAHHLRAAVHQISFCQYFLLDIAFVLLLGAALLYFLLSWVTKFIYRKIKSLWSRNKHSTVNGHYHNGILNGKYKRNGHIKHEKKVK

[3] = Distribution coefficient, log D of the compound; type: physicochemical; details: octanol/water
[4] = Drug uptake in C57BL/6 mouse brain at 3 mg/kg, iv measured at 5 mins; type: ADME, organism-based; details: read-out: Drug uptake
[5] = Clearance in C57BL/6 mouse at 1 mg/kg, iv; type: ADME, organism-based; details: in vivo
[6] = Volume of distribution at steady state in C57BL/6 mouse at 1 mg/kg, iv; type: ADME, organism-based; details: in vivo, read-out: Vdss
[7] = Half life in C57BL/6 mouse at 1 mg/kg, iv; type: ADME, organism-based; details: in vivo
[8] = Cmax in Beagle dog at 3 mg/kg, po; type: ADME, organism-based, Canis lupus familiaris; set-up: route oral, dose 3 mg/kg; details: in vivo
[9] = (§1) In vivo inhibition of GalCer de novo synthesis in po dosed adult C57BL/6 mouse kidney assessed as reduction in [13C] galactose incorporation into GalCer treated with compound for 1 hr prior to intraperitoneal injection of [13C] galactose measured after 5 hrs of compound administration; type: functional
Mus musculus = assay: as §1; type: functional
[10] = (§2) In vivo inhibition of GalCer de novo synthesis in adult C57BL/6 mouse kidney assessed as reduction in [13C] galactose incorporation into GalCer at 3 mg/kg, po via gavage treated with compound for 1 hr prior to intraperitoneal injection of [13C] galactose measured after 5 hrs of compound administration relative to control; type: functional
[11] = as §2, with “at 10” for “at 3”; type: functional
[12] = as §2, with “of SFT” for “of GalCer”, “into SFT” for “into GalCer”, “at 0.3” for “at 3”; type: functional
[13] = (§3) In vivo inhibition of GalCer de novo synthesis in PN14 to PN21 days C57BL/6 mouse brain assessed as reduction in [13C] galactose incorporation into GalCer at 3 mg/kg, po bid for 2 days and single dose at day 3 treated 1 hr prior to intraperitoneal injection of [13C] galactose measured after 5 hrs of last dose relative to control; type: functional; details: C57BL/6, 72 h, time 3 day
[14] = as §3, with “SFT” for “GalCer”; type: functional; details: C57BL/6, 72 h, time 3 day
[15] = (§4) In vivo inhibition of SFT de novo synthesis in po dosed PN14 to PN21 days C57BL/6 mouse brain assessed as reduction in [13C] galactose incorporation into SFT administered twice for 2 days and single dose at day 3 treated 1 hr prior to intraperitoneal injection of [13C] galactose measured after 5 hrs of last dose; type: functional; details: C57BL/6, 72 h, time 3 day
[16] = as §4, with “GalCerde” for “SFT de”, “GalCer” for “SFT”; type: functional; details: C57BL/6, 72 h, time 3 day
[17] = target: T3, 2-hydroxyacylsphingosine 1-beta-galactosyltransferase (Mus musculus, UniProt Q64676); assay: Inhibition of mouse UGT8 assessed as redcution in SFT accumulation
T3 sequence (Q64676 whole entry): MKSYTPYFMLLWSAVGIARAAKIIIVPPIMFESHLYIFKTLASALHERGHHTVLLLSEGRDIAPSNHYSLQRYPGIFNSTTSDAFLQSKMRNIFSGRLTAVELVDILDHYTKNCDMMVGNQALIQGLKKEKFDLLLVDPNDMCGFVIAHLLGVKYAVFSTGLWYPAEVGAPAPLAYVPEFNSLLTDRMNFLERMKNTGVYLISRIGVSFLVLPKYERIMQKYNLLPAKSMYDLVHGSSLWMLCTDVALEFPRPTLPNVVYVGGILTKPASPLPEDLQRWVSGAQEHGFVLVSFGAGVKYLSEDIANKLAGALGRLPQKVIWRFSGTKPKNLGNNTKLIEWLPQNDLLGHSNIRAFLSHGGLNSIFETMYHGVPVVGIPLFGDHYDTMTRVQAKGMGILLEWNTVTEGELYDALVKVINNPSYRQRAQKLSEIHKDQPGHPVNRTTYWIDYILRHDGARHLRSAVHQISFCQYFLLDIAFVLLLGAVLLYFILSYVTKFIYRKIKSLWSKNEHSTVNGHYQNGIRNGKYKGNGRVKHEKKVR

[18] = target: T3, 2-hydroxyacylsphingosine 1-beta-galactosyltransferase; assay: Inhibition of mouse UGT8 assessed as redcution in GalCer accumulation

pIC50 [1]: < 5.00
pIC50 [2]: 9.70
logD [3]: 5.09
concentration at 5 min [4]: 2050 ng/mL
clearance [5]: 24.7 mL/min/kg
Vd [6]: 1.64 L/kg
half-life [7]: 1.13 h
Cmax [8]: 693 ng/mL
pIC50 [17]: 9.52
pIC50 [18]: 9.70
SMILES: CNC(=O)c1csc2c(C(F)(F)F)cc(N3CCC(OC(=O)N[C@@H](C)COC(F)(F)F)CC3)nc12
ED50 [9]: 1 mg/kg
inhibition (Mus musculus): Dose-dependent effect
inhibition in vivo at 3 mg/kg [10]: 72%
inhibition in vivo at 10 mg/kg [11]: 85%
inhibition in vivo at 0.3 mg/kg [12]: 29%
inhibition in vivo at 3 mg/kg [13]: 90%
inhibition in vivo at 3 mg/kg [14]: 92%
ED50 [15]: < 3 mg/kg
ED50 [16]: < 3 mg/kg

From ChEMBL document CHEMBL4725449, “Brain Penetrable Inhibitors of Ceramide Galactosyltransferase for the Treatment of Lysosomal Storage Disorders” (ACS Med Chem Lett, 2020)
